Test results as given in patent publication US20130324576A1, “THERAPEUTIC COMPOUNDS” (Takeda Pharmaceutical Company Limited, priority 2012, published 2013).

Target: T1, human PKR1 receptors (Homo sapiens, UniProt Q8TCW9)
T1 construct: expressed in transfected cells; host or cells: RBL2H3 cells (rat basophilic leukaemia line) expressing human PKR1
Assay: PKR1 antagonist assay: block of PK1-mediated intracellular calcium release (FLIPR Tetra, Calcium 5 dye)
Assay type: cell-based
Settings: RBL2H3 cells expressing human PKR1; 10 min pre-incubation, stimulation with PK1 at EC80; calcium fluorescence
Description: Prokineticin receptor 1 (PKR1) antagonists may be functionally assessed by measurement of change in intracellular calcium levels induced by Gq mediated increase in inositol triphosphate (IP3) levels. The ability of a compound to block the intracellular release of calcium mediated by PK1 in RBL2H3 cells expressing human PKR1 receptors is determined as a measure of the compound's antagonist activity in vitro.
Approximately 10,000 cells per assay well are seeded in normal culture medium in a 384 well plate (Corning). Twenty-four hours after seeding, the cells are loaded with a calcium sensitive fluorescent dye by replacing the culture medium with assay buffer (1× Hanks buffered saline, 25 mM HEPES, 0.1% w/v fatty acid free BSA (bovine serum albumin), pH 7.4) containing 1 mM probenecid and 1× Calcium 5 Reagent (Molecular Devices). Cells are incubated at 37° C. for 1 hour to allow for dye uptake.
To test for antagonist activity, test compounds at a final concentration range between 0.32 nM-10 μM (diluted in assay buffer) are added to the assay wells and allowed to incubate for 10 minutes prior to stimulation with PK1. After incubation with test compounds the assay plate is placed in a FLIPR Tetra (Molecular Devices) and PK1 (diluted in assay buffer) is added at the determined EC80 concentration (final). Ligand-dependent changes in intracellular calcium levels are determined by measuring changes in fluorescence of the dye at […] following excitation at 485 nm.

T1 sequence (Q8TCW9 whole entry): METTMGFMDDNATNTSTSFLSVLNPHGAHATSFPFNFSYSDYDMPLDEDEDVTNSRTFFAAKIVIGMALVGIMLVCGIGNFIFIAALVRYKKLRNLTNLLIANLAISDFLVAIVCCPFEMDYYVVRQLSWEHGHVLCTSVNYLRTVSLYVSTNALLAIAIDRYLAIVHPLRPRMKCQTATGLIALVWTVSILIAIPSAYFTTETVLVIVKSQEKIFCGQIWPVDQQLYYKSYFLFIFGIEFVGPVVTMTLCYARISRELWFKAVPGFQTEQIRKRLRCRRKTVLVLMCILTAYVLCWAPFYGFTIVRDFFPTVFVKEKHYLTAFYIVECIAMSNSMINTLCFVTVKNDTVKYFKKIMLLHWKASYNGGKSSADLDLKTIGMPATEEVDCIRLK

| Compound | IC50 |
| --- | --- |
| Cc1n[nH]c(C)c1S(=O)(=O)N1CCC(O)(Cc2ccc(Cl)cc2F)CC1 [Example 75, 4-(4-Chloro-2-fluorobenzyl)-1-((3,5-dimethyl-1H-pyrazol-4-yl)sulfonyl)piperidin-4-ol] | 6.98 µM |
| Cc1nn(C)c(C)c1S(=O)(=O)N1CCC(O)(Cc2ccc(Cl)c(Cl)c2)CC1 [Example 69, 4-(3,4-Dichlorobenzyl)-1-((1,3,5-trimethyl-1H-pyrazol-4-yl)sulfonyl)piperidin-4-ol] | 6.47 µM |
| Cc1nn(C)c(C)c1S(=O)(=O)N1CCC(Nc2ccc(Cl)c(Cl)c2)CC1 [Example 52, N-(3,4-Dichlorophenyl)-1-((1,3,5-trimethyl-1H-pyrazol-4-yl)sulfonyl)piperidin-4-amine] | 2.7 µM |
| COCC(c1ccc(Cl)cc1)C1CCN(S(=O)(=O)c2c(C)n[nH]c2C)CC1 (stereo not drawn) [Example 109, 4-(1-(4-Chlorophenyl)-2-methoxyethyl)-1-((3,5-dimethyl-1H-pyrazol-4-yl)sulfonyl)piperidine] | 1.86 µM |
| Cc1n[nH]c(C)c1S(=O)(=O)N1CCC(O)(Cc2ccc(Cl)cc2)CC1 [Example 108, 4-(4-Chlorobenzyl)-1-((3,5-dimethyl-1H-pyrazol-4-yl)sulfonyl)piperidin-4-ol] | 1.64 µM |
| Cc1nn(C)c(C)c1S(=O)(=O)N1CCC(Oc2ccc(Cl)cc2)C(C)C1 (stereo not drawn) [Example 21, 4-(4-Chlorophenoxy)-3-methyl-1-[(1,3,5-trimethyl-1H-pyrazol-4-yl)sulfonyl]piperidine] | 2.1 µM |
| Cc1n[nH]c(C)c1S(=O)(=O)N1CCC(Oc2ccc(Cl)cc2)CC1 [Example 8, 4-(4-Chlorophenoxy)-1-[(3,5-dimethyl-1H-pyrazol-4-yl)sulfonyl]piperidine] | 1.45 µM |
| Cc1n[nH]c(C)c1S(=O)(=O)N1CCC(C#N)(Cc2ccc(Cl)cc2)CC1 [Example 64, 4-(4-Chlorobenzyl)-1-((3,5-dimethyl-1H-pyrazol-4-yl)sulfonyl)piperidine-4-carbonitrile] | 0.89 µM |
| Cc1nn(C)cc1S(=O)(=O)N1CCC(Oc2ccc(Cl)cc2Cl)CC1 [Example 27, 4-(2,4-Dichlorophenoxy)-1-[(1,3-dimethyl-1H-pyrazol-4-yl)sulfonyl]piperidine] | 5.6 µM |
| Cc1c(S(=O)(=O)N2CCC(Oc3ccc(Cl)cc3)CC2)c(C(F)(F)F)nn1C [Example 16, 4-(4-Chlorophenoxy)-1-{[1,5-dimethyl-3-(trifluoromethyl)-1H-pyrazol-4-yl]sulfonyl}piperidine] | 4.6 µM |
| Cc1nn(C)c(C)c1S(=O)(=O)N1CCC(Oc2ccc(Cl)c(Cl)c2)CC1 [Example 1, 4-(3,4-Dichlorophenoxy)-1-((1,3,5-trimethyl-1H-pyrazol-4-yl)sulfonyl)piperidine] | 1.4 µM |
| Cc1nn(C)c(C)c1S(=O)(=O)N1CCC(Oc2c(F)cc(Cl)cc2F)CC1 [Example 46, 4-(4-Chloro-2,6-difluorophenoxy)-1-(trimethyl-1H-pyrazole-4-sulfonyl)piperidine] | 1 µM |
| Cc1nn(C)c(C)c1S(=O)(=O)N1CCC(Oc2ccc(Cl)c(F)c2)CC1 [Example 45, 4-(4-Chloro-3-fluorophenoxy)-1-(trimethyl-1H-pyrazole-4-sulfonyl)piperidine] | 1.4 µM |
| Cc1n[nH]c(C)c1S(=O)(=O)N1CCC(C(CO)c2ccc(Cl)cc2)CC1 (stereo not drawn) [Example 100, 2-(4-Chlorophenyl)-2-(1-((3,5-dimethyl-1H-pyrazol-4-yl)sulfonyl)piperidin-4-yl)ethanol] | 9.42 µM |
| Cc1n[nH]c(C)c1S(=O)(=O)N1CCC(C(O)c2ccc(Cl)cc2)CC1 (stereo not drawn) [Example 94] | 1.74 µM |
| CCOC(=O)C1(Cc2ccc(Cl)cc2)CCN(S(=O)(=O)c2c(C)nn(C)c2C)CC1 [Example 61, Ethyl 4-(4-chlorobenzyl)-1-((1,3,5-trimethyl-1H-pyrazol-4-yl)sulfonyl)piperidine-4-carboxylate] | 1.08 µM |
| Cc1cccc(C)c1OC1CCN(S(=O)(=O)c2c(C)n[nH]c2C)CC1 [Example 38, 1-(3,5-Dimethyl-1H-pyrazole-4-sulfonyl)-4-(2,6-dimethylphenoxy)piperidine] | 3.2 µM |
| Cc1n[nH]c(C)c1S(=O)(=O)N1CCC(Nc2ccc(Cl)cc2)CC1 [Example 103, N-(4-Chlorophenyl)-1-((3,5-dimethyl-1H-pyrazol-4-yl)sulfonyl)piperidin-4-amine] | 1.76 µM |
| Cc1nn(C)c(Cl)c1S(=O)(=O)N1CCC(Oc2ccc(Cl)cc2Cl)CC1 [Example 25, 1-[(5-Chloro-1,3-dimethyl-1H-pyrazol-4-yl)sulfonyl]-4-(2,4-dichlorophenoxy)piperidine] | 1.3 µM |
| COc1ccc(OC2CCN(S(=O)(=O)c3c(C)nn(C)c3C)CC2)cc1 [Example 18, 4-(4-Methoxyphenoxy)-1-[(1,3,5-trimethyl-1H-pyrazol-4-yl)sulfonyl]piperidine] | 7 µM |
| Cc1nn(C)c(C)c1S(=O)(=O)N1CCC(Oc2ccc(OC(F)(F)F)cc2)CC1 [Example 3, 4-[4-(Trifluoromethoxy)phenoxy]-1-[(1,3,5-trimethyl-1H-pyrazol-4-yl)sulfonyl]piperidine] | 1.4 µM |

These reach a lower IC50. Values come first.

| IC50 | Compound |
| --- | --- |
| 0.41 µM | Cc1n[nH]c(C)c1S(=O)(=O)N1CCC(C(F)c2ccc(Cl)cc2)CC1 (stereo not drawn) [Example 105, 4-((4-Chlorophenyl)fluoromethyl)-1-((3,5-dimethyl-1H-pyrazol-4-yl)sulfonyl)piperidine] |
| 0.47 µM | Cc1n[nH]c(C)c1S(=O)(=O)N1CCC(C(C)c2ccc(Cl)cc2)CC1 (stereo not drawn) [Example 102, 4-(1-(4-Chlorophenyl)ethyl)-1-((3,5-dimethyl-1H-pyrazol-4-yl)sulfonyl)piperidine] |
| 0.44 µM | Cc1n[nH]c(C)c1S(=O)(=O)N1CCC(Oc2ccc3ccccc3c2)CC1 [Example 33, 1-[(3,5-Dimethyl-1H-pyrazol-4-yl)sulfonyl]-4-(naphthalen-2-yloxy)piperidine] |
| 0.24 µM | Cc1n[nH]c(C)c1S(=O)(=O)N1CCC(Oc2ccc(Cl)cc2C#N)CC1 [Example 34, 5-Chloro-2-{[1-(3,5-dimethyl-1H-pyrazole-4-sulfonyl)piperidin-4-yl]oxy}benzonitrile] |
| 0.47 µM | Cc1nn(C)c(C)c1S(=O)(=O)N1CCC(Oc2ccc(Br)cc2F)CC1 [Example 14, 4-(4-Bromo-2-fluorophenoxy)-1-[(1,3,5-trimethyl-1H-pyrazol-4-yl)sulfonyl]piperidine] |
| 0.05 µM | COc1cc(Cl)ccc1CC1CCN(S(=O)(=O)c2c(C)nn(C)c2C)CC1 [Example 79, 4-(4-Chloro-2-methoxybenzyl)-1-((1,3,5-trimethyl-1H-pyrazol-4-yl)sulfonyl)piperidine] |
| 0.81 µM | Cc1n[nH]c(C)c1S(=O)(=O)N1CCC(F)(Cc2ccc(Cl)cc2F)CC1 [Example 80, 4-(4-Chloro-2-fluorobenzyl)-1-((3,5-dimethyl-1H-pyrazol-4-yl)sulfonyl)-4-fluoropiperidine] |
| 0.44 µM | Cc1nn(C)c(C)c1S(=O)(=O)N1CCC(Cc2ccc(Cl)c(F)c2)CC1 [Example 72, 4-(4-Chloro-3-fluorobenzyl)-1-((1,3,5-trimethyl-1H-pyrazol-4-yl)sulfonyl)piperidine] |
| 0.72 µM | COc1cc(Cl)cnc1OC1CCN(S(=O)(=O)c2c(C)nn(C)c2C)CC1 [Example 84, 5-Chloro-3-methoxy-2-((1-((1,3,5-trimethyl-1H-pyrazol-4-yl)sulfonyl)piperidin-4-yl)oxy)pyridine] |
